Tests used:
LoVo = assay: cells; conditions: Homo sapiens, LoVo, 48 h
Procedure, shortened: (§1)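 Colorimetric SRB read (490 nm) on triplicate wells after 48 h at 37 °C, 5% CO2. Dose range 10 to 10^−8 μg/ml; 5×10^3 cells/well pre-attached 18 h.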

HT-29 = assay: cells; conditions: Homo sapiens, HT-29, 48 h
Procedure, shortened: as §1

A-549 = assay: cells; conditions: Homo sapiens, A549, 48 h
Procedure, shortened: as §1

HeLa = assay: Inhibition of cells growth by colorimetric assay (SRB); conditions: Homo sapiens, HeLa, 48 h
Procedure, shortened: as §1

IGROV-1 = assay: as above; conditions: Homo sapiens, IGROV-1, 48 h
Procedure, shortened: as §1

HeLa-APL = assay: as above; conditions: Homo sapiens, 48 h
Procedure, shortened: as §1

DU-145 = assay: as above; conditions: Homo sapiens, DU-145, 48 h
Procedure, shortened: as §1

SK-BR-3 = assay: as above; conditions: Homo sapiens, SK-BR-3, 48 h
Procedure, shortened: as §1

PANC-1 = assay: as above; conditions: Homo sapiens, PANC-1, 48 h
Procedure, shortened: as §1

LoVo-Dox = assay: as above; conditions: Homo sapiens, 48 h
Procedure, shortened: as §1

SK-MEL-28 = assay: as above; conditions: Homo sapiens, SK-MEL-28, 48 h
Procedure, shortened: as §1

IGROV-ET = assay: as above; conditions: Homo sapiens, 48 h
Procedure, shortened: as §1

LNCaP = assay: as above; conditions: Homo sapiens, LNCaP, 48 h
Procedure, shortened: as §1

K-562 = assay: as above; conditions: Homo sapiens, K562, 48 h
Procedure, shortened: as §1

## COc1c(C)cc2c(c1O)[C@H]1N[C@@H](C2)[C@H](C#N)N2C1[C@@H]1SCC(NC(C)=O)C(=O)OC[C@H]2c2c3c(c(C)c(OC(C)=O)c21)OCO3 (stereo partly drawn) [compound 30]
LoVo; read-out: GI50 LOVO
  GI50: 0.002 µM
LoVo; read-out: LC50 LOVO
  CC50: 15.4 µM
LoVo; read-out: TGI LOVO
  IC (TGI): 0.00807 µM
HT-29; read-out: GI50 HT29
  GI50: 0.00203 µM
HT-29; read-out: LC50 HT29
  CC50: 15.4 µM
HT-29; read-out: TGI HT29
  IC (TGI): 0.0135 µM
A-549; read-out: GI50 A549
  GI50: 0.00347 µM
A-549; read-out: LC50 A549
  CC50: 0.089 µM
A-549; read-out: TGI A549
  IC (TGI): 0.0105 µM
HeLa; read-out: GI50 HELA
  GI50: 0.00115 µM
HeLa; read-out: LC50 HELA
  CC50: 0.0217 µM
HeLa; read-out: TGI HELA
  IC (TGI): 0.00453 µM
IGROV-1; read-out: GI50 IGROV
  GI50: 0.000695 µM
IGROV-1; read-out: LC50 IGROV
  CC50: 0.231 µM
IGROV-1; read-out: TGI IGROV
  IC (TGI): 0.00332 µM
HeLa-APL; read-out: GI50 HELA-APL
  GI50: 0.00186 µM
HeLa-APL; read-out: LC50 HELA-APL
  CC50: 0.0195 µM
HeLa-APL; read-out: TGI HELA-APL
  IC (TGI): 0.0055 µM
DU-145; read-out: GI50 DU145
  GI50: 0.00263 µM
DU-145; read-out: LC50 DU145
  CC50: 14.1 µM
DU-145; read-out: TGI DU145
  IC (TGI): 0.00744 µM
SK-BR-3; read-out: GI50 SK-BR3
  GI50: 0.000527 µM
SK-BR-3; read-out: LC50 SK-BR3
  CC50: 0.267 µM
SK-BR-3; read-out: TGI SK-BR3
  IC (TGI): 0.00229 µM
PANC-1; read-out: GI50 PANC-1
  GI50: 0.00289 µM
PANC-1; read-out: LC50 PANC-1
  CC50: 15.4 µM
PANC-1; read-out: TGI PANC-1
  IC (TGI): 0.0155 µM
LoVo-Dox; read-out: GI50 LOVO-DOX
  GI50: 0.207 µM
LoVo-Dox; read-out: LC50 LOVO-DOX
  CC50: 15.4 µM
LoVo-Dox; read-out: TGI LOVO-DOX
  IC (TGI): 2.07 µM
SK-MEL-28; read-out: GI50 MEL-28
  GI50: 0.00109 µM
SK-MEL-28; read-out: LC50 MEL-28
  CC50: 0.0107 µM
SK-MEL-28; read-out: TGI MEL-28
  IC (TGI): 0.00366 µM
IGROV-ET; read-out: GI50 IGROV-ET
  GI50: 0.0254 µM
IGROV-ET; read-out: LC50 IGROV-ET
  CC50: 15.4 µM
IGROV-ET; read-out: TGI IGROV-ET
  IC (TGI): 0.0824 µM
LNCaP; read-out: GI50 LNCAP
  GI50: 0.0968 µM
LNCaP; read-out: LC50 LNCAP
  CC50: 0.147 µM
LNCaP; read-out: TGI LNCAP
  IC (TGI): 0.12 µM
K-562; read-out: GI50 K562
  GI50: 0.000312 µM
K-562; read-out: LC50 K562
  CC50: 9.51 µM
K-562; read-out: TGI K562
  IC (TGI): 0.00249 µM
